The results in this text go back to ChEMBL document CHEMBL5465560, “Selectivity Literature for EUbOPEN Chemogenomic Library” (2024).

SMILES strings stand for the structures.

The target in assay [1] is Tyrosine-protein kinase JAK2 (Homo sapiens, UniProt O60674). The assay is described as follows: Selectivity interaction (Kinase panel (Z-LYTE Assay)) EUB0001632a JAK2. The conditions noted are these: at 10 µM.
For assay [2], the target named is T1, Serine/threonine-protein kinase TAO3 (Homo sapiens) (UniProt Q9H2K8).
T1 sequence (whole entry): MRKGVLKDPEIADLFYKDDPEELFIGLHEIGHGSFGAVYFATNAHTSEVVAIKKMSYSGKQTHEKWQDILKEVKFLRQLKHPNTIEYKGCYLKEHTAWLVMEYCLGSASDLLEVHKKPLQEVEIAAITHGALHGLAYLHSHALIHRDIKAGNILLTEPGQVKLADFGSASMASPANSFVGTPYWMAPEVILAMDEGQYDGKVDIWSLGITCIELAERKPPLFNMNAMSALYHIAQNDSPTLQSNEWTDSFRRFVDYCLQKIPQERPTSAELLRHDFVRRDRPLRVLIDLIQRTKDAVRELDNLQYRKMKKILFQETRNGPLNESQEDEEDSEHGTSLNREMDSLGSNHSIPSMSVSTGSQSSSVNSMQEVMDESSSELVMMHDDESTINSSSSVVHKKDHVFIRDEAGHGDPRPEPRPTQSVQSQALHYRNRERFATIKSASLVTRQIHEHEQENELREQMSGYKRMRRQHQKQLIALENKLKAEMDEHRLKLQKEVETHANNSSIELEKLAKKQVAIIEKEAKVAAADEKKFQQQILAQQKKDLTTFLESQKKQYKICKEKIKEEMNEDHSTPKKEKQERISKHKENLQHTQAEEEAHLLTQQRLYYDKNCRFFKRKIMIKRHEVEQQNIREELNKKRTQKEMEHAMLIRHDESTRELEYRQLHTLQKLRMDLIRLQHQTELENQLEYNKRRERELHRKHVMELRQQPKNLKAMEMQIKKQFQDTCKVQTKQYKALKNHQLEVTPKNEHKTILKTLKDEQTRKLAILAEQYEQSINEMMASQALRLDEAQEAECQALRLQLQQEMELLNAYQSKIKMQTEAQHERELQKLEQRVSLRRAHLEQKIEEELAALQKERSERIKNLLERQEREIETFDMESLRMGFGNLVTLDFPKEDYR
The assay is described as follows: Selectivity interaction (LanthaScreen Eu Kinase Binding Assay) EUB0001632a TAOK3. The conditions noted are these: at 10 µM. Background: Time-resolved FRET reads energy transfer from a long-lived donor to a nearby acceptor.

The target in assay [3] is T2, cAMP-dependent protein kinase catalytic subunit PRKX (Homo sapiens) (UniProt P51817).
T2 sequence (whole entry): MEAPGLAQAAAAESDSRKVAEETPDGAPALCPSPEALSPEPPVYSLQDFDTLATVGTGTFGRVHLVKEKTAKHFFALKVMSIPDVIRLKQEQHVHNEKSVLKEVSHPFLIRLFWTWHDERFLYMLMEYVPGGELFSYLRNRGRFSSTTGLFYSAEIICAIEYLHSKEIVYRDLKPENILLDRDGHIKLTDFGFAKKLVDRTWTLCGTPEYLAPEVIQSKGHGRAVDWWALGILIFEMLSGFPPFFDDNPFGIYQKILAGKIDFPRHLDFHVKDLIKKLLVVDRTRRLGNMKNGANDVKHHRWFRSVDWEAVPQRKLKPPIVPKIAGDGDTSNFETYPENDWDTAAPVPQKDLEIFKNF
The conditions noted are these: at 10 µM.

Assay [4] concerns the target T3, Testis-specific serine/threonine-protein kinase 2 (Homo sapiens) (UniProt Q96PF2).
T3 sequence (whole entry): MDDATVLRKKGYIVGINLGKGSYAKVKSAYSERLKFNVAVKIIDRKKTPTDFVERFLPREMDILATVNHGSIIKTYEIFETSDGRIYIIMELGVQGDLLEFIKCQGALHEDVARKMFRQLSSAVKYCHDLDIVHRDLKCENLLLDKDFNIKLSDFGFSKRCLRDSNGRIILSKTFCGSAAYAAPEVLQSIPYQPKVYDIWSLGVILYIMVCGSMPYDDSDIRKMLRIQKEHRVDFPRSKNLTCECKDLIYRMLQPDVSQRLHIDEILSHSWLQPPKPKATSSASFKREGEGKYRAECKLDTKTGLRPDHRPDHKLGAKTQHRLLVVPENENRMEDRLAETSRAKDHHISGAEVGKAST
The assay is described as follows: Selectivity interaction (Kinase screening (Nanosyn)) EUB0000604a TSSK2.

The target of assay [5] is Ephrin type-A receptor 5 (Homo sapiens) (UniProt P54756). As to the kind of experiment: Selectivity interaction (Kinase panel (Invitrogen)) EUB0000639a EPHA5. The conditions noted are these: at 200 nM.
Ephrin type-A receptor 5 (Homo sapiens), sequence (P54756 whole entry): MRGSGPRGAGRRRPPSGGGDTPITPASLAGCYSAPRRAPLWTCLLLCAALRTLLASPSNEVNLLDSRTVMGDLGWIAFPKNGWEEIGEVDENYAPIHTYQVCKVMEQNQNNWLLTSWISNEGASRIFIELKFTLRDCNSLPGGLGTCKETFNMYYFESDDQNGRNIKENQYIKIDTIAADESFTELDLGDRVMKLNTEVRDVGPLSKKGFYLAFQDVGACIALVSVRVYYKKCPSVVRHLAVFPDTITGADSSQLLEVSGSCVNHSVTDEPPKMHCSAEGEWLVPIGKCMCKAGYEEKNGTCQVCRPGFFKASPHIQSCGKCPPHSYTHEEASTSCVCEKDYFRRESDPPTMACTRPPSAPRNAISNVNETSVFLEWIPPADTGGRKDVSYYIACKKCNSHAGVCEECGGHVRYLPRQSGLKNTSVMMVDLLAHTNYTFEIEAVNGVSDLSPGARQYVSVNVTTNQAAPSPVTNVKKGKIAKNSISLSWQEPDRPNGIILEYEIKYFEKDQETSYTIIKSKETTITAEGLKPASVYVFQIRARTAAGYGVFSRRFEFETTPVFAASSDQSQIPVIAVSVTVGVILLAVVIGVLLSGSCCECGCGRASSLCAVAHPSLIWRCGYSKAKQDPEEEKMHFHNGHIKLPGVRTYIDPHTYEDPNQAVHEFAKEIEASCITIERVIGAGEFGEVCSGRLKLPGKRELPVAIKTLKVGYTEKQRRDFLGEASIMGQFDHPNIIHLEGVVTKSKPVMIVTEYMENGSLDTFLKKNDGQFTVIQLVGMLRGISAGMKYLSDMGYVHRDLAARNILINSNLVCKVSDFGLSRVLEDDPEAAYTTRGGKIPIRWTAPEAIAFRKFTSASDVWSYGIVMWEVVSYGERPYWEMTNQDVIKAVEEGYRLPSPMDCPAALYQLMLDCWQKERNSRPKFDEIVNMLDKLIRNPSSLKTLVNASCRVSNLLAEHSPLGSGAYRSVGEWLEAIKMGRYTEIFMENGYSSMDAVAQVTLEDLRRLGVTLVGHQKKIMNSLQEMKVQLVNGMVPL
Assay [6] has as its target Tyrosine-protein kinase Lck (Homo sapiens, UniProt P06239). As to the kind of experiment: Selectivity interaction (ProQinase) EUB0000171b LCK.
Assay [7] deals with T4, Serine/threonine-protein kinase Nek3 (Homo sapiens) (UniProt P51956).
T4 sequence (whole entry): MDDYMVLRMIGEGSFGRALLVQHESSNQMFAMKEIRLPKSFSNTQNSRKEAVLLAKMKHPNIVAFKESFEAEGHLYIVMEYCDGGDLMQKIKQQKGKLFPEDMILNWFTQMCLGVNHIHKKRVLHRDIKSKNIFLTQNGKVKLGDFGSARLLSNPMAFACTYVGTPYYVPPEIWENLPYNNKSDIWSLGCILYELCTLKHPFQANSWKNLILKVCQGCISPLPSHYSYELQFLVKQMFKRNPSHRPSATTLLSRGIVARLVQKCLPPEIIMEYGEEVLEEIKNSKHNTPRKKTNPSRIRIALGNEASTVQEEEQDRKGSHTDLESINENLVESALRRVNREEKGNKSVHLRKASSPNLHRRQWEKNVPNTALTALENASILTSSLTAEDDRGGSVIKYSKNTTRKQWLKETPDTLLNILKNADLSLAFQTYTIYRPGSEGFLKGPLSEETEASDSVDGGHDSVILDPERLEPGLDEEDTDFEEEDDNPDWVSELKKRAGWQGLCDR
As to the kind of experiment: Selectivity interaction (Ambit KINOMEscan and KiNATiv profiling in Jurkat cells) EUB0000090b NEK3. Format: cell-based. The conditions noted are these: at 1 µM.

In assay [8] the target is T5, Testis-specific serine/threonine-protein kinase 1 (Homo sapiens) (UniProt Q9BXA7).
T5 sequence (whole entry): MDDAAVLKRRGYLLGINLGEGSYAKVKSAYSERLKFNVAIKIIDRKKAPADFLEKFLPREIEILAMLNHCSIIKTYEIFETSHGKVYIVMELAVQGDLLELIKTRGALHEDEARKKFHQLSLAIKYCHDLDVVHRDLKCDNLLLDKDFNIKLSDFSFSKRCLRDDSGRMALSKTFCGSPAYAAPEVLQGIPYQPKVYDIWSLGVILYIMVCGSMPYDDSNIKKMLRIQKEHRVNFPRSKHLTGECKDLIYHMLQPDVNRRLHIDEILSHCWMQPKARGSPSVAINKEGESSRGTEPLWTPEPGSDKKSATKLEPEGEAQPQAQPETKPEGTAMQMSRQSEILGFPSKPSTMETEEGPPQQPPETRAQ
As to the kind of experiment: Selectivity interaction (KinomeScan (DiscoverX)) EUB0001079a TSSK1B. The following applies: at 1 µM.

Assay [9] addresses Cyclin-dependent kinase 5/CDK5 activator 1 (Homo sapiens) (UniProt Q00535+Q15078). The assay is described as follows: Selectivity interaction (Millipore kinase profiler) EUB0000124b CDK5. It is filed as protein-complex assay. The following applies: at 10 µM.

Tyrosine-protein kinase Lck, sequence (P06239 2-509 limits assumed): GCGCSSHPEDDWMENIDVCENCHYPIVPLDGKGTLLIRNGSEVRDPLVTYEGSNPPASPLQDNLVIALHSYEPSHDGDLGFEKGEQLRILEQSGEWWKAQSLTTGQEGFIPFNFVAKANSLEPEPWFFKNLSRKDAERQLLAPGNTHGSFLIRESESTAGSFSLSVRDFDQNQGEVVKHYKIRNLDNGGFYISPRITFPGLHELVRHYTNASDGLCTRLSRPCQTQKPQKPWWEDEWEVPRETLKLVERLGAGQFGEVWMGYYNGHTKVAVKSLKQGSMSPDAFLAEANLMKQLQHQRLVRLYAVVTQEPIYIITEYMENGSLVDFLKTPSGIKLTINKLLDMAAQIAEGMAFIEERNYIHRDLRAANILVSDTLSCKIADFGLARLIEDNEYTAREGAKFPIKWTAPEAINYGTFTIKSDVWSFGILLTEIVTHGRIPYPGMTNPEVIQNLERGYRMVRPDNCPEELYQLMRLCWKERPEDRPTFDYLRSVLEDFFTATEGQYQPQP
Cyclin-dependent kinase 5/CDK5 activator 1 (Homo sapiens), sequence (Q00535 whole entry): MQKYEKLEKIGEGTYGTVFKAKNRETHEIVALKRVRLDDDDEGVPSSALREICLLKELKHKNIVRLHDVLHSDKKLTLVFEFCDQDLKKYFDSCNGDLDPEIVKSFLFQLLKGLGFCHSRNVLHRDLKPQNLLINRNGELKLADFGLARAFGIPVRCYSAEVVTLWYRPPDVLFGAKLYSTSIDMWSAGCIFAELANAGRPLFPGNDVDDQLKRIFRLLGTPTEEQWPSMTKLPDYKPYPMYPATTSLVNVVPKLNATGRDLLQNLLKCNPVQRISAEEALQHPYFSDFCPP
Cyclin-dependent kinase 5/CDK5 activator 1 (Homo sapiens), sequence (Q15078 99-307 partner limits assumed): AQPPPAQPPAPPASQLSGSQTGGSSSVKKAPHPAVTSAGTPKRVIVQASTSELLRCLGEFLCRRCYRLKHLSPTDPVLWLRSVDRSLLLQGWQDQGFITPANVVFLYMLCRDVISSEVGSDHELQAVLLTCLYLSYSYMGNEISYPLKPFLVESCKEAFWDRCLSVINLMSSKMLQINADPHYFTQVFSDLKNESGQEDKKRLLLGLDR
Tyrosine-protein kinase JAK2, sequence (O60674 whole entry): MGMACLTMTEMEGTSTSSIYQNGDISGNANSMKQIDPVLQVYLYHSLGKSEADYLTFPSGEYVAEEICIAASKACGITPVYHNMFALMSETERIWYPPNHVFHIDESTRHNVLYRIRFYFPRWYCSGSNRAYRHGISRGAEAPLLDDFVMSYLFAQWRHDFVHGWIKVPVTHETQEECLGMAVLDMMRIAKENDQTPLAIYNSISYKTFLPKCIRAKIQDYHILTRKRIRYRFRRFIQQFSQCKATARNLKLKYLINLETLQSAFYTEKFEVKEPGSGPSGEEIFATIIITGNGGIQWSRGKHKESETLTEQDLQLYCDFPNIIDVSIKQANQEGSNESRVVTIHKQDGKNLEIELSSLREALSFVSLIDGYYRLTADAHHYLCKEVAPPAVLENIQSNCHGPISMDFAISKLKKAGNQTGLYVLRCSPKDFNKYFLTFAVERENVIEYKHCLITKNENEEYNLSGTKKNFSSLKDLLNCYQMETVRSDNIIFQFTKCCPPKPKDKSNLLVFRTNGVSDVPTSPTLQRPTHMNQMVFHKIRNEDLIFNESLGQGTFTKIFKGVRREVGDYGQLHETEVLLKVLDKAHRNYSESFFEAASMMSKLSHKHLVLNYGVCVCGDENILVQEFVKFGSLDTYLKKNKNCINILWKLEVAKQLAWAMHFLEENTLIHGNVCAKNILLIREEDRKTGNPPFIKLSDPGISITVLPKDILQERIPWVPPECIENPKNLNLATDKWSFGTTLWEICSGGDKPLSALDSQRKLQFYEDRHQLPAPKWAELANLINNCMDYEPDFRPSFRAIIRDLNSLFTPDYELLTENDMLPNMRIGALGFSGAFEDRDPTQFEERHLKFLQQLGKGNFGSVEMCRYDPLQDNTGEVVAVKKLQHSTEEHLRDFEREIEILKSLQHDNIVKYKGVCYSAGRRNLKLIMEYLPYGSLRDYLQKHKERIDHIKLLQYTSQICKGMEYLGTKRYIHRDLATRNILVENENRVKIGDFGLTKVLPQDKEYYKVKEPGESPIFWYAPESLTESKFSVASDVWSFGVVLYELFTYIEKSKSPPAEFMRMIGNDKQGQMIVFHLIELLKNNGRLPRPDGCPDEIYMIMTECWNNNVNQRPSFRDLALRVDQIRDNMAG

`Cn1cc(-n2cnc3c(NCc4nc5cc(Cl)c(Cl)cc5[nH]4)nc(N4CCOCC4)nc32)cn1` showed a % of control in assay [1] of 3.68%. The % of inhibition in assay [2] is 7.54%.
In assay [3], `Cc1cc([C@@H](C)Nc2ccccc2C(=O)O)c2nc(N3CCOCC3)cc(=O)n2c1` [AZD-6482] displayed a % of control of 91%.
Regarding `Cc1cnc(Nc2ccc(F)cc2Cl)nc1-c1c[nH]c(C(=O)N[C@H](CO)c2cccc(Cl)c2)c1`, the % of inhibition in [4] was 3%.
`CC[C@@H]1[C@H](F)C(=O)N[C@@H]1COc1nccc2cc(C(N)=O)c(OC)cc12` [ZIMLOVISERTIB]: in [5], the % of inhibition was -0.246%.
Consider `C=CC(=O)Nc1cccc(C(=O)Nc2ccc(Nc3cc(-c4[nH]c(SC)nc4C)ccn3)cc2)c1`, for which the % of control turned out to be 85% in assay [6] (at 1 µM) and 89% in [6] (at 5 µM).
In assay [7], `CN(C)C/C=C/C(=O)Nc1ccc(C(=O)N2CCCC(Nc3ncc(Cl)c(-c4c[nH]c5ccccc45)n3)C2)cc1` (stereo not given) came in with a % of control of 88%.
`Nc1cnc(N2CCc3cc(S(=O)(=O)Nc4c(F)cc(Cl)cc4F)cc(N4CCCC4=O)c32)nc1` [TP-020n] registered a % of control in assay [8] of 100%.
Regarding `CC(=O)Nc1cccc(-n2c(=O)n(C3CC3)c(=O)c3c(Nc4ccc(I)cc4F)n(C)c(=O)c(C)c32)c1`, the % of control in [9] stood at 102%.
